This passage reports IC50 results from paper PMC4074120, “Discovery of Novel GPVI Receptor Antagonists by Structure-Based Repurposing” (PLoS ONE, 2014).

This test addresses T1, GPVI (platelet glycoprotein VI) (Homo sapiens, UniProt Q9HCN6).
T1 construct: gene GP6; native receptor on washed human platelets
T1 sequence (Q9HCN6 21-339): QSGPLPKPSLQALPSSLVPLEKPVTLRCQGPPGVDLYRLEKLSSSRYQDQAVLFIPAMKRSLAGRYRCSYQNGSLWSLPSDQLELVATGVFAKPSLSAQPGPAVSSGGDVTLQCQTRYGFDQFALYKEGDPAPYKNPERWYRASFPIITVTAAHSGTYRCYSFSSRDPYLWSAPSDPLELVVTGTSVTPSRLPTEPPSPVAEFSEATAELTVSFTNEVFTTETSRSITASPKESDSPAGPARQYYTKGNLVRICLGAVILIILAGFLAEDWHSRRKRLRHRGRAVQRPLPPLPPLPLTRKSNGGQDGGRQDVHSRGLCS
Briefly: Inhibition of CRP-XL/collagen-induced Ca2+ release and aggregation in washed human platelets; rightward shift of CRP-XL curve. The note with it: read-out: Ca^2+ RELEASE / CRP. In kind it is cell-based.

For `CN(C)CCCSc1ccccc1NC(=O)/C=C/c1ccccc1` [cinanserin], the IC50 is 40 µM.
